From PubChem BioAssay (NCI)
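Exposure lasted 48 hours, with cells grown in 96-well plates and compounds tested at five concentrations. At the TGI there is no net growth.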

Key:
Assay in all cases: inhibition of tumour cell growth, NCI panel, 48 h
786-0 renal = system: 786-0 renal
A498 renal = system: A498 renal
A549 NSCLC = system: A549 NSCLC
ACHN renal = system: ACHN renal
BT-549 breast = system: BT-549 breast
CAKI-1 renal = system: CAKI-1 renal
CCRF-CEM leukemia = system: CCRF-CEM leukemia
COLO 205 colon = system: COLO 205 colon
DU-145 prostate = system: DU-145 prostate
EKVX NSCLC = system: EKVX NSCLC
HCC-2998 colon = system: HCC-2998 colon
HCT-116 colon = system: HCT-116 colon
HCT-15 colon = system: HCT-15 colon
HL-60(TB) leukemia = system: HL-60(TB) leukemia
HOP-62 NSCLC = system: HOP-62 NSCLC
HOP-92 NSCLC = system: HOP-92 NSCLC
HS 578T breast = system: HS 578T breast
HT29 colon = system: HT29 colon
IGROV1 ovarian = system: IGROV1 ovarian
K-562 leukemia = system: K-562 leukemia
KM12 colon = system: KM12 colon
LOX IMVI melanoma = system: LOX IMVI melanoma
M14 melanoma = system: M14 melanoma
MALME-3M melanoma = system: MALME-3M melanoma
MCF7 breast = system: MCF7 breast
MDA-MB-231 breast = system: MDA-MB-231 breast
MDA-MB-435 = system: MDA-MB-435
MDA-N = system: MDA-N
MOLT-4 leukemia = system: MOLT-4 leukemia
NCI-H226 lung = system: NCI-H226 lung
NCI-H23 lung = system: NCI-H23 lung
NCI-H460 lung = system: NCI-H460 lung
NCI-H522 lung = system: NCI-H522 lung
NCI/ADR-RES ovarian = system: NCI/ADR-RES ovarian
OVCAR-3 ovarian = system: OVCAR-3 ovarian
OVCAR-4 ovarian = system: OVCAR-4 ovarian
OVCAR-5 ovarian = system: OVCAR-5 ovarian
OVCAR-8 ovarian = system: OVCAR-8 ovarian
PC-3 prostate = system: PC-3 prostate
RPMI-8226 leukemia = system: RPMI-8226 leukemia
RXF 393 renal = system: RXF 393 renal
SF-268 CNS = system: SF-268 CNS
SF-295 CNS = system: SF-295 CNS
SF-539 CNS = system: SF-539 CNS
SK-MEL-2 melanoma = system: SK-MEL-2 melanoma
SK-MEL-28 melanoma = system: SK-MEL-28 melanoma
SK-MEL-5 melanoma = system: SK-MEL-5 melanoma
SK-OV-3 ovarian = system: SK-OV-3 ovarian
SN12C renal = system: SN12C renal
SNB-19 CNS = system: SNB-19 CNS
SNB-75 CNS = system: SNB-75 CNS
SW-620 colon = system: SW-620 colon
T-47D breast = system: T-47D breast
TK-10 renal = system: TK-10 renal
U251 CNS = system: U251 CNS
UACC-257 melanoma = system: UACC-257 melanoma
UACC-62 melanoma = system: UACC-62 melanoma
UO-31 renal = system: UO-31 renal
SR leukemia = system: SR leukemia

CC[C@@H]1CC[C@@H]2[C@H](CC[C@]3(C)[C@@H](O)CC[C@@H]23)[C@H]1CO
TGI (786-0 renal): > 100 µM
TGI (A498 renal): > 100 µM
TGI (A549 NSCLC): > 100 µM
TGI (ACHN renal): > 100 µM
TGI (BT-549 breast): > 100 µM
TGI (CAKI-1 renal): > 100 µM
TGI (CCRF-CEM leukemia): > 100 µM
TGI (COLO 205 colon): > 100 µM
TGI (DU-145 prostate): > 100 µM
TGI (EKVX NSCLC): > 100 µM
TGI (HCC-2998 colon): > 100 µM
TGI (HCT-116 colon): > 100 µM
TGI (HCT-15 colon): > 100 µM
TGI (HL-60(TB) leukemia): 85.8 µM
TGI (HOP-62 NSCLC): > 100 µM
TGI (HOP-92 NSCLC): > 100 µM
TGI (HS 578T breast): > 100 µM
TGI (HT29 colon): > 100 µM
TGI (IGROV1 ovarian): > 100 µM
TGI (K-562 leukemia): > 100 µM
TGI (KM12 colon): > 100 µM
TGI (LOX IMVI melanoma): > 100 µM
TGI (M14 melanoma): > 100 µM
TGI (MALME-3M melanoma): > 100 µM
TGI (MCF7 breast): > 100 µM
TGI (MDA-MB-231 breast): > 100 µM
TGI (MDA-MB-435): > 100 µM
TGI (MDA-N): > 100 µM
TGI (MOLT-4 leukemia): > 100 µM
TGI (NCI-H226 lung): > 100 µM
TGI (NCI-H23 lung): > 100 µM
TGI (NCI-H460 lung): > 100 µM
TGI (NCI-H522 lung): > 100 µM
TGI (NCI/ADR-RES ovarian): > 100 µM
TGI (OVCAR-3 ovarian): > 100 µM
TGI (OVCAR-4 ovarian): > 100 µM
TGI (OVCAR-5 ovarian): > 100 µM
TGI (OVCAR-8 ovarian): > 100 µM
TGI (PC-3 prostate): > 100 µM
TGI (RPMI-8226 leukemia): > 100 µM
TGI (RXF 393 renal): > 100 µM
TGI (SF-268 CNS): > 100 µM
TGI (SF-295 CNS): > 100 µM
TGI (SF-539 CNS): > 100 µM
TGI (SK-MEL-2 melanoma): > 100 µM
TGI (SK-MEL-28 melanoma): > 100 µM
TGI (SK-MEL-5 melanoma): > 100 µM
TGI (SK-OV-3 ovarian): > 100 µM
TGI (SN12C renal): > 100 µM
TGI (SNB-19 CNS): > 100 µM
TGI (SNB-75 CNS): > 100 µM
TGI (SW-620 colon): > 100 µM
TGI (T-47D breast): > 100 µM
TGI (TK-10 renal): > 100 µM
TGI (U251 CNS): > 100 µM
TGI (UACC-257 melanoma): > 100 µM
TGI (UACC-62 melanoma): > 100 µM
TGI (UO-31 renal): > 100 µM

Cc1ccc([N+](=O)[O-])cc1S(=O)(=O)Nc1ccc(C2=NN(C(=O)c3ccccc3)C(c3cccs3)C2)cc1 (configuration not stated)
TGI (786-0 renal): 45.2 µM
TGI (A498 renal): 50.8 µM
TGI (A549 NSCLC): > 100 µM
TGI (ACHN renal): > 100 µM
TGI (BT-549 breast): > 100 µM
TGI (CAKI-1 renal): > 100 µM
TGI (CCRF-CEM leukemia): > 100 µM
TGI (COLO 205 colon): 32.8 µM
TGI (DU-145 prostate): > 100 µM
TGI (EKVX NSCLC): 67.7 µM
TGI (HCT-116 colon): > 100 µM
TGI (HCT-15 colon): > 100 µM
TGI (HL-60(TB) leukemia): > 100 µM
TGI (HOP-62 NSCLC): 78.3 µM
TGI (HOP-92 NSCLC): 55.3 µM
TGI (HS 578T breast): > 100 µM
TGI (HT29 colon): > 100 µM
TGI (IGROV1 ovarian): > 100 µM
TGI (K-562 leukemia): > 100 µM
TGI (KM12 colon): > 100 µM
TGI (LOX IMVI melanoma): > 100 µM
TGI (M14 melanoma): > 100 µM
TGI (MALME-3M melanoma): 68.6 µM
TGI (MCF7 breast): > 100 µM
TGI (MDA-MB-231 breast): 44 µM
TGI (MDA-MB-435): > 100 µM
TGI (MDA-N): 77.4 µM
TGI (MOLT-4 leukemia): > 100 µM
TGI (NCI-H226 lung): 88.3 µM
TGI (NCI-H23 lung): 61.7 µM
TGI (NCI-H522 lung): 70.8 µM
TGI (NCI/ADR-RES ovarian): > 100 µM
TGI (OVCAR-3 ovarian): 45.5 µM
TGI (OVCAR-4 ovarian): > 100 µM
TGI (OVCAR-5 ovarian): > 100 µM
TGI (OVCAR-8 ovarian): > 100 µM
TGI (PC-3 prostate): > 100 µM
TGI (RPMI-8226 leukemia): > 100 µM
TGI (RXF 393 renal): 56.8 µM
TGI (SF-268 CNS): > 100 µM
TGI (SF-295 CNS): > 100 µM
TGI (SF-539 CNS): 63.9 µM
TGI (SK-MEL-2 melanoma): 39.5 µM
TGI (SK-MEL-28 melanoma): > 100 µM
TGI (SK-MEL-5 melanoma): 32.7 µM
TGI (SK-OV-3 ovarian): 82.5 µM
TGI (SN12C renal): 66.3 µM
TGI (SNB-19 CNS): > 100 µM
TGI (SNB-75 CNS): 67 µM
TGI (SR leukemia): > 100 µM
TGI (SW-620 colon): > 100 µM
TGI (T-47D breast): 84.2 µM
TGI (TK-10 renal): 75.1 µM
TGI (U251 CNS): > 100 µM
TGI (UACC-257 melanoma): 72.9 µM
TGI (UO-31 renal): > 100 µM

COc1cc([C@H]2CC(=O)C[C@@H](c3cc(OC)c(OC)c(OC)c3)C23C(=O)c2ccccc2C3=O)cc(OC)c1OC
TGI (786-0 renal): > 100 µM
TGI (A549 NSCLC): > 100 µM
TGI (ACHN renal): > 100 µM
TGI (BT-549 breast): > 100 µM
TGI (CAKI-1 renal): > 100 µM
TGI (CCRF-CEM leukemia): > 100 µM
TGI (COLO 205 colon): > 100 µM
TGI (DU-145 prostate): > 100 µM
TGI (EKVX NSCLC): > 100 µM
TGI (HCC-2998 colon): > 100 µM
TGI (HCT-116 colon): > 100 µM
TGI (HCT-15 colon): > 100 µM
TGI (HL-60(TB) leukemia): > 100 µM
TGI (HOP-62 NSCLC): > 100 µM
TGI (HOP-92 NSCLC): > 100 µM
TGI (HS 578T breast): > 100 µM
TGI (HT29 colon): > 100 µM
TGI (IGROV1 ovarian): > 100 µM
TGI (K-562 leukemia): > 100 µM
TGI (KM12 colon): > 100 µM
TGI (LOX IMVI melanoma): > 100 µM
TGI (M14 melanoma): > 100 µM
TGI (MALME-3M melanoma): > 100 µM
TGI (MCF7 breast): > 100 µM
TGI (MDA-MB-231 breast): > 100 µM
TGI (MDA-MB-435): > 100 µM
TGI (MDA-N): > 100 µM
TGI (MOLT-4 leukemia): > 100 µM
TGI (NCI-H226 lung): > 100 µM
TGI (NCI-H23 lung): > 100 µM
TGI (NCI-H460 lung): > 100 µM
TGI (NCI-H522 lung): > 100 µM
TGI (NCI/ADR-RES ovarian): > 100 µM
TGI (OVCAR-3 ovarian): > 100 µM
TGI (OVCAR-4 ovarian): > 100 µM
TGI (OVCAR-5 ovarian): > 100 µM
TGI (OVCAR-8 ovarian): > 100 µM
TGI (PC-3 prostate): > 100 µM
TGI (RPMI-8226 leukemia): > 100 µM
TGI (RXF 393 renal): > 100 µM
TGI (SF-268 CNS): > 100 µM
TGI (SF-295 CNS): > 100 µM
TGI (SF-539 CNS): > 100 µM
TGI (SK-MEL-2 melanoma): > 100 µM
TGI (SK-MEL-28 melanoma): > 100 µM
TGI (SK-MEL-5 melanoma): > 100 µM
TGI (SK-OV-3 ovarian): > 100 µM
TGI (SN12C renal): > 100 µM
TGI (SNB-19 CNS): > 100 µM
TGI (SNB-75 CNS): > 100 µM
TGI (SR leukemia): > 100 µM
TGI (SW-620 colon): > 100 µM
TGI (T-47D breast): > 100 µM
TGI (TK-10 renal): > 100 µM
TGI (U251 CNS): > 100 µM
TGI (UACC-257 melanoma): > 100 µM
TGI (UACC-62 melanoma): > 100 µM
TGI (UO-31 renal): > 100 µM
